Data as given in patent US20260295053A1, “COMPOUNDS FOR DEGRADATION AND INHIBITION OF KRAS (G12D) PROTEIN” (Shenzhen Ionova Life Science Co., Ltd., priority 2023, published 2026).

Target: T1, KRAS (G12D) (Homo sapiens, UniProt P01116, G12D)
T1 construct: in-cell western with KRAS G12D antibody after 24 h
Assay: KRAS (G12D) cellular degradation assay in AsPC-1 cells
Assay type: cell-based
Conditions: 24 hours, antibody fluorescence (Odyssey CLX), DC50 half-maximal degradation concentration
Experimental: ASPC-1 and PK-59 cellular assays ASPC-1 (ATCC cat. CRL-1682) and PK-59 (Nanjing Cobioer, Cat. No. CBP61184) were used in KRAS cellular degradation, pERK inhibition and proliferation assays. The two cell lines were maintained following vendor's instructions. For monitoring KRAS (G12D) cellular degradation and pERK biomarker inhibition, cells were seeded into a 96-well plate with 22,000 and 16,000 cells/well for assays in ASPC-1 and PK-59, respectively. Cells were incubated at 37° C. with 5% CO2 and cell density was monitored until ^~90% confluency was reached. Compounds were serially diluted at a 1:3 ratio and dispensed into each well at final concentrations ranging from […] to 1.5 nM. After incubation for 24 hours, the culture media were removed and the cells were subjected to fixation, permeabilization and blocking (Intercept blocking buffer, Li-cor). For KRAS (G12D) degradation, the cells were treated with primary antibody (KRAS G12D antibody, Cell Signaling Technologies, Cat. No. CST14429) and for β-actin (β-actin mAb, Beyotime, Cat. No. AF-5001), and followed by secondary antibodies, Anti-rabbit IgG (H+L) (DyLight™ 800 4×PEG Conjugate) or IRDye® 680RD Goat anti-Mouse IgG. For pERK inhibition assay, cells were treated with primary antibodies for pERK (Phospho-p44/42 MAPK (Erk1/2) (Thr202/Tyr204) (D13.14.4E) XP® Rabbit mAb, Cell Signaling Technologies, Cat. No. CST-4370) and β-actin (β-actin mAb, Beyotime, Cat. No. AF-5001), and followed by secondary antibodies, Anti-rabbit IgG (H+L) (DyLight™ 800 4×PEG Conjugate) or IRDye® 680RD Goat anti-Mouse IgG. Fluorescence signals were read on Odyssey CLX instrument. For cell proliferation assays, cells were seeded into a 96-well plate at 3,500 and 800 cells/well for assays in ASPC-1 and PK-59, respectively. Cells were incubated at 37° C. with 5% CO2 for overnight. Compounds were serially diluted at a 1:3 ratio and dispensed into each well at final concentrations ranging from […] to 1.5 nM. After incubation for 6 days, cell viability reagent (CellTiter Glo, Promega, Cat. No. G7573) was added to each well and luminescence was recorded on Molecular Devices Spectramax iD3 instrument. IC50, half-maximal inhibitory concentration for pERK inhibition or cell proliferation, and DC50, half-maximal degradation concentration in KRAS (G12D) cellular degradation were determined by fitting the corresponding dose response curves using GraphPad Prism software.
Wherein “A” means the value <10 nM, “B” means 10 nM<the value <100 nM, “C” means 100 nM<the value <1000 nM, and “D” means the value >1000 nM, in which, the value means the value of DC50 or IC50. NT means not tested.

T1 sequence (P01116 1-188 isoform P01116-2 G12D): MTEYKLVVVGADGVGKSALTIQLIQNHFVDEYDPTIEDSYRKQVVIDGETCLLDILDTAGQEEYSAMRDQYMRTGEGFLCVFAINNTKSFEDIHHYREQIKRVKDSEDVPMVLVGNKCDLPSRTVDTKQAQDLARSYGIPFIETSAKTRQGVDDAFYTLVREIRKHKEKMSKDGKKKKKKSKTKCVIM

| SMILES | DC50 |
| --- | --- |
| CCn1nccc1-c1ccc([C@H](CO)NC(=O)[C@@H]2C[C@@H](O)CN2C(=O)[C@H](C(C)C)n2cc(-c3ccc(COc4c(-c5c(C)c(F)cc6[nH]ncc56)c(C5CC5)cc5c(N6CCC(O)CC6)nc(OC[C@H](C)OC)nc45)cc3)nn2)cc1 [Example 217, (2S,4R)-1-((2S)-2-(4-(4-(((6-cyclopropyl-7-(6-fluoro-5-methyl-1H-indazol-4-yl)-4-(4-hydroxypiperidin-1-yl)-2-((S)-2-methoxypropoxy)quinazolin-8-yl)oxy)methyl)phenyl)-1H-1,2,3-triazol-1-yl)-3-methylbutanoyl)-N—((R)-1-(4-(1-ethyl-1H-pyrazol-5-yl)phenyl)-2-hydroxyethyl)-4-hydroxypyrrolidine-2-carboxamide] | < 10 nM |
| CCn1nccc1-c1ccc([C@H](CO)NC(=O)[C@@H]2C[C@@H](O)CN2C(=O)[C@H](C(C)C)n2cc(-c3ccc(COc4c(-c5c(C)c(F)cc6[nH]ncc56)c(C5CC5)cc5c(N(C)C[C@@H]6CCNC6)nc(OC[C@H](C)OC)nc45)cc3)nn2)cc1 [Example 216, (2S,4R)-1-((2S)-2-(4-(4-(((6-cyclopropyl-7-(6-fluoro-5-methyl-1H-indazol-4-yl)-2-((S)-2-methoxypropoxy)-4-(methyl(((R)-pyrrolidin-3-yl)methyl)amino)quinazolin-8-yl)oxy)methyl)phenyl)-1H-1,2,3-triazol-1-yl)-3-methylbutanoyl)-N—((R)-1-(4-(1-ethyl-1H-pyrazol-5-yl)phenyl)-2-hydroxyethyl)-4-hydroxypyrrolidine-2-carboxamide] | < 10 nM |
| CCn1nccc1-c1ccc([C@H](CO)NC(=O)[C@@H]2C[C@@H](O)CN2C(=O)[C@H](C(C)C)n2cc(-c3ccc(COc4c(-c5c(C)c(F)cc6[nH]ncc56)c(C5CC5)cc5c(N6CCCC(C#N)CC6)nc(OC[C@H](C)OC)nc45)cc3)nn2)cc1 (stereo partly drawn) [Example 182, (2S,4R)-1-((2S)-2-(4-(4-(((4-(4-cyanoazepan-1-yl)-6-cyclopropyl-7-(6-fluoro-5-methyl-1H-indazol-4-yl)-2-((S)-2-methoxypropoxy)quinazolin-8-yl)oxy)methyl)phenyl)-1H-1,2,3-triazol-1-yl)-3-methylbutanoyl)-N—((R)-1-(4-(1-ethyl-1H-pyrazol-5-yl)phenyl)-2-hydroxyethyl)-4-hydroxypyrrolidine-2-carboxamide] | 10 to 100 nM |
| CCn1nccc1-c1ccc([C@@H](NC(=O)[C@@H]2C[C@@H](O)CN2C(=O)[C@H](C(C)C)n2cc(-c3ccc(COc4c(-c5c(C)c(F)cc6[nH]ncc56)c(C5CC5)cc5c(N(C)[C@@H]6CCNC6)nc(O[C@H]6C[C@H](OC)C6)nc45)cc3)nn2)[C@H](C)O)cc1F [Example 220, (2S,4R)-1-((2S)-2-(4-(4-(((6-cyclopropyl-7-(6-fluoro-5-methyl-1H-indazol-4-yl)-2-((1r,3R)-3-methoxycyclobutoxy)-4-(methyl((R)-pyrrolidin-3-yl)amino)quinazolin-8-yl)oxy)methyl)phenyl)-1H-1,2,3-triazol-1-yl)-3-methylbutanoyl)-N-((1R,2S)-1-(4-(1-ethyl-1H-pyrazol-5-yl)-3-fluorophenyl)-2-hydroxypropyl)-4-hydroxypyrrolidine-2-carboxamide] | < 10 nM |
| Cc1ncsc1-c1ccc([C@H](CO)NC(=O)[C@@H]2C[C@@H](O)CN2C(=O)[C@H](C(C)C)n2cc(-c3ccc(COc4c(-c5c(C)c(F)cc6[nH]ncc56)c(C5CC5)cc5c(N6C[C@H]7C[C@@H]6CN7)nc(OC6CCOCC6)nc45)cc3)nn2)cc1 (single isomer, unassigned) [Example 5B] | > 1000 nM |
| CO[C@@H](C)COc1nc(N2C[C@@H]3C[C@H]2CN3)c2cc(C3CC3)c(-c3c(C)c(F)cc4[nH]ncc34)c(OCc3ccc(-c4cn([C@H](C(=O)N5C[C@H](O)C[C@H]5C(=O)N[C@H](C#Cc5cc(F)cc(F)c5)CO)C(C)C)nn4)cc3)c2n1 [Example 141, (2S,4R)-1-((2S)-2-(4-(4-(((4-((1S,4S)-2,5-diazabicyclo[2.2.1]heptan-2-yl)-6-cyclopropyl-7-(6-fluoro-5-methyl-1H-indazol-4-yl)-2-((S)-2-methoxypropoxy)quinazolin-8-yl)oxy)methyl)phenyl)-1H-1,2,3-triazol-1-yl)-3-methylbutanoyl)-N—((R)-4-(3,5-difluorophenyl)-1-hydroxybut-3-yn-2-yl)-4-hydroxypyrrolidine-2-carboxamide] | 10 to 100 nM |
| CO[C@@H](C)COc1nc(N2CC3CCC(C2)N3)c2cc(C3CC3)c(-c3c(C)c(F)cc4[nH]ncc34)c(OCc3ccc(-c4cn([C@H](C(=O)N5C[C@H](O)C[C@H]5C(=O)N[C@@H](CO)c5ccc(-c6scnc6C)cc5)C(C)C)nn4)cc3)c2n1 (single isomer, unassigned) [Example 12B] | > 1000 nM |
| CCn1nccc1-c1ccc([C@H](CO)NC(=O)[C@@H]2C[C@@H](O)CN2C(=O)[C@H](C(C)C)n2cc(-c3ccc(COc4c(-c5c(C)c(F)cc6[nH]ncc56)c(C5CC5)cc5c(N6C[C@H]7C[C@@H]6CN7)nc(OC6CCOCC6)nc45)cc3)nn2)cc1 (single isomer, unassigned) [Example 16B] | > 1000 nM |
| CO[C@@H](C)COc1nc(N2C[C@@H]3C[C@H]2CN3)c2cc(C3CC3)c(-c3c(C)c(F)cc4[nH]ncc34)c(OCc3ccc(-c4cn([C@H](C(=O)N5C[C@H](O)C[C@H]5C(=O)N[C@H](C#Cc5ccccc5)CO)C(C)C)nn4)cc3)c2n1 [Example 123, (2S,4R)-1-((2S)-2-(4-(4-(((4-((1S,4S)-2,5-diazabicyclo[2.2.1]heptan-2-yl)-6-cyclopropyl-7-(6-fluoro-5-methyl-1H-indazol-4-yl)-2-((S)-2-methoxypropoxy)quinazolin-8-yl)oxy)methyl)phenyl)-1H-1,2,3-triazol-1-yl)-3-methylbutanoyl)-4-hydroxy-N—((R)-1-hydroxy-4-phenylbut-3-yn-2-yl)pyrrolidine-2-carboxamide] | 10 to 100 nM |
| CO[C@@H](C)COc1nc(N2C[C@@H]3C[C@H]2CN3)c2cc(C3CC3)c(-c3c(C)c(F)cc4[nH]ncc34)c(OCc3ccc(-c4cn([C@H](C(=O)N5C[C@H](O)C[C@H]5C(=O)N[C@H](C#Cc5cccc6c5ncn6C)CO)C(C)C)nn4)cc3)c2n1 [Example 140, (2S,4R)-1-((2S)-2-(4-(4-(((4-((1S,4S)-2,5-diazabicyclo[2.2.1]heptan-2-yl)-6-cyclopropyl-7-(6-fluoro-5-methyl-1H-indazol-4-yl)-2-((S)-2-methoxypropoxy)quinazolin-8-yl)oxy)methyl)phenyl)-1H-1,2,3-triazol-1-yl)-3-methylbutanoyl)-4-hydroxy-N—((R)-1-hydroxy-4-(1-methyl-1H-benzo[d]imidazol-4-yl)but-3-yn-2-yl)pyrrolidine-2-carboxamide] | 10 to 100 nM |
| CCn1nccc1-c1ccc([C@H](CO)NC(=O)[C@@H]2C[C@@H](O)CN2C(=O)[C@H](C(C)C)n2cc(-c3ccc(COc4c(-c5c(C)c(F)cc6[nH]ncc56)c(C5CC5)cc5c(N6CCCNCC6)nc(OC[C@H]6CCCO6)nc45)cc3)nn2)cc1 [Example 214, (2S,4R)-1-((2S)-2-(4-(4-(((6-cyclopropyl-4-(1,4-diazepan-1-yl)-7-(6-fluoro-5-methyl-1H-indazol-4-yl)-2-(((R)-tetrahydrofuran-2-yl)methoxy)quinazolin-8-yl)oxy)methyl)phenyl)-1H-1,2,3-triazol-1-yl)-3-methylbutanoyl)-N—((R)-1-(4-(1-ethyl-1H-pyrazol-5-yl)phenyl)-2-hydroxyethyl)-4-hydroxypyrrolidine-2-carboxamide] | < 10 nM |
| CO[C@@H](C)COc1nc(N2C[C@@H]3C[C@H]2CN3)c2cc(C3CC3)c(-c3c(C)c(F)cc4[nH]ncc34)c(OCc3ccc(-c4cn([C@H](C(=O)N5C[C@H](O)C[C@H]5C(=O)N[C@H](C#Cc5cccc6c5cnn6C)CO)C(C)C)nn4)cc3)c2n1 [Example 134, (2S,4R)-1-((2S)-2-(4-(4-(((4-((1S,4S)-2,5-diazabicyclo[2.2.1]heptan-2-yl)-6-cyclopropyl-7-(6-fluoro-5-methyl-1H-indazol-4-yl)-2-((S)-2-methoxypropoxy)quinazolin-8-yl)oxy)methyl)phenyl)-1H-1,2,3-triazol-1-yl)-3-methylbutanoyl)-4-hydroxy-N—((R)-1-hydroxy-4-(1-methyl-1H-indazol-4-yl)but-3-yn-2-yl)pyrrolidine-2-carboxamide] | 10 to 100 nM |
